The source of these data is patent publication US20220023386A1, “METHOD FOR THE TREATMENT OR PREVENTION OF OSTEOARTHRITIS” (Chondropeptix B.V., priority 2016, published 2022).

Holding throughout (test): Expression of OA chondrocyte phenotype marker genes by RT-qPCR after peptide exposure
Common to all, as to format: cell-based, human
On the technique in general: Quantitative PCR measures a nucleic acid by following its amplification.

Test [1] has as its system OA articular chondrocytes. Also noted: key: [+] denotes a significantly increased expression of chondrogenic marker BAPX1/NKX3.2 or a decreased expression of OA chondrocyte phenotypic markers ALP, MMP13, ADAMTS5, COX2, COL10A and RUNX2 in OA articular chondrocytes, in comparison to untreated OA articular chondrocytes.; [−] denotes the absence of a significant effort or a significantly decreased expression of chondrogenic marker BAPX1/NKX3.2 or an increased expression of OA chondrocyte phenotypic markers ALP, MMP13, ADAMTS5, COX2, COL10A and RUNX2 in OA articular chondrocytes, in comparison to untreated OA articular chondrocytes. To be noted: Table 2 (FIGS. 2-8), peptide 10 nM, 24 hours, vs untreated OA articular chondrocytes. The protocol:
The action of 20-mer peptides (10 nM) of SEQ ID NO: 2-15 (peptides with 1 amino acids intervals (19 amino acid overlap)) and SEQ ID NO:49 on the expression of the indicated genes was determined on a validated pool of passage 2 OA human articular chondrocytes (n=18) and compared to full-length recombinant BMP-7 (1 nM). Samples were harvested after 24 hours and analyzed for indicated genes by RT-qPCR (corrected for 28S rRNA expression and relative to control conditions (no peptide exposure)). In the graphs, numbers on the x-axis represent individual peptides according to their SEQ ID NO:, error bars represent mean±SEM, statistical differences were calculated (one-way ANOVA with bonferroni correction) to control condition. *=p<0.05 lower than control condition for COL10A1, ALP, RUNX2, COX-2, MMP13 and ADAMTS5 and higher than control condition for BAPX1/NKX3.2. Random peptide is a peptide according to SEQ ID NO: 49 with amino acid sequence […].

For test [2], the system named is OA articular chondrocytes. Also on record: key: [+] denotes a significantly increased expression of chondrogenic marker BAPX1/NKX3.2 or a decreased expression of OA chondrocyte phenotypic markers ALP, MMP13, ADAMTS5, COX2, COL10A and RUNX2 in OA articular chondrocytes, in comparison to untreated OA articular chondrocytes.; [−] denotes the absence of a significant effort or a significantly decreased expression of chondrogenic marker BAPX1/NKX3.2 or an increased expression of OA chondrocyte phenotypic markers ALP, MMP13, ADAMTS5, COX2, COL10A and RUNX2 in OA articular chondrocytes, in comparison to untreated OA articular chondrocytes. As to conditions: Table 2 (FIGS. 2-8), peptide 10 nM, 24 hours, vs untreated OA articular chondrocytes. The source holds these as a separate data set.

The test system of test [3] is OA articular chondrocytes. As to conditions: independent of the tested concentration (1000, 100, 10 and 1 nM were tested).

“2 (WIIAPEGYAAYYSEGESAFP; homo sapiens) [compound 2]”: in test [1], the ADAMTS5 expression result is on record as “−”, the ALP expression result was “−”, the BAPX1/NKX3.2 expression entry was “−” and the COL10A expression entry is “−”. Also, in test [1], the COX-2 expression entry is “+” and the RUNX2 expression entry was “−”. The MMP13 expression result in test [2] is listed as “−”.

Take “3 (IIAPEGYAAYYSEGESAFPL; homo sapiens) [compound 3]”: in test [1], the ADAMTS5 expression result was “−”, the ALP expression result is on record as “−”, the BAPX1/NKX3.2 expression result was “−” and the COL10A expression entry was “−”. Further, in test [1], the COX-2 expression entry is reported as “+” and the RUNX2 expression entry is listed as “−”. Moreover, the MMP13 expression entry in test [2] is reported as “−”.

Turning to “4 (IAPEGYAAYYSEGESAFPLN; homo sapiens) [compound 4]”, in test [1], the ADAMTS5 expression result was “−”, the ALP expression entry is reported as “−”, the BAPX1/NKX3.2 expression result is reported as “−” and the COL10A expression result is “−”. Moreover, in test [1], the COX-2 expression entry was “+” and the RUNX2 expression result is “−”. In addition, the MMP13 expression result in test [2] was “−”.

Regarding “5 (APEGYAAYYSEGESAFPLNS; homo sapiens) [compound 5]”, in test [1], the ADAMTS5 expression result is reported as “+”, the ALP expression entry is “+”, the BAPX1/NKX3.2 expression entry is listed as “+” and the COL10A expression entry is given as “+”. Besides, in test [1], the COX-2 expression entry was “+” and the RUNX2 expression result is reported as “+”. In test [2], the MMP13 expression result was “−”.

On to “6 (PEGYAAYYSEGESAFPLNSY; homo sapiens) [compound 6]”, for which, in test [1], the ADAMTS5 expression entry is listed as “+”, the ALP expression entry is reported as “+”, the BAPX1/NKX3.2 expression result is “+” and the COL10A expression result was “+”. Moreover, in test [1], the COX-2 expression result was “+” and the RUNX2 expression result is listed as “+”. The MMP13 expression entry in test [2] is “−”.

Consider “7 (EGYAAYYSEGESAFPLNSYM; homo sapiens) [compound 7]”, for which, in test [1], the ADAMTS5 expression entry is reported as “+”, the ALP expression entry is reported as “+”, the BAPX1/NKX3.2 expression result is “+” and the COL10A expression entry is listed as “+”. Moreover, in test [1], the COX-2 expression entry was “+” and the RUNX2 expression result is on record as “+”.

With “8 (GYAAYYSEGESAFPLNSYMN; homo sapiens) [compound 8]”, in test [1], the ADAMTS5 expression result is “+”, the ALP expression entry is on record as “+”, the BAPX1/NKX3.2 expression entry was “+” and the COL10A expression result was “+”. For the same substance, in test [1], the COX-2 expression entry is given as “+” and the RUNX2 expression result is on record as “+”. Further, the MMP13 expression entry in test [2] is reported as “+”.

Turning to “9 (YAAYYSEGESAFPLNSYMNA; homo sapiens) [compound 9]”, in test [1], the ADAMTS5 expression result is recorded as “+”, the ALP expression entry is listed as “+”, the BAPX1/NKX3.2 expression entry is listed as “+” and the COL10A expression entry is on record as “+”. In test [1], the COX-2 expression entry is “+” and the RUNX2 expression result is on record as “+”. Besides, the MMP13 expression entry in test [2] was “+”.

For “10 (AAYYSEGESAFPLNSYMNAT; homo sapiens) [compound 10]”, in test [1], the ADAMTS5 expression result was “+”, the ALP expression entry is on record as “+”, the BAPX1/NKX3.2 expression entry is “+” and the COL10A expression entry is on record as “+”. For the same substance, in test [1], the COX-2 expression result was “+” and the RUNX2 expression entry was “+”. The MMP13 expression result in test [2] was “+”.

For the substance “11 (AYYSEGESAFPLNSYMNATN; homo sapiens) [compound 11]”, in test [1], the ADAMTS5 expression result is recorded as “+”, the ALP expression result is given as “+”, the BAPX1/NKX3.2 expression result is “+” and the COL10A expression entry is given as “+”. Moreover, in test [1], the COX-2 expression entry is on record as “+” and the RUNX2 expression entry is listed as “+”. The MMP13 expression entry in test [2] is given as “+”.

Turning to “12 (YYSEGESAFPLNSYMNATNH; homo sapiens) [compound 12]”, in test [1], the ADAMTS5 expression entry is on record as “+”, the ALP expression result is “+”, the BAPX1/NKX3.2 expression result is given as “+” and the COL10A expression result was “+”. Further, in test [1], the COX-2 expression result is reported as “+” and the RUNX2 expression entry is “+”. In addition, the MMP13 expression result in test [2] was “+”.

As for “13 (YSEGESAFPLNSYMNATNHA; homo sapiens) [compound 13]”, in test [1], the ADAMTS5 expression result was “+”, the ALP expression entry was “+”, the BAPX1/NKX3.2 expression result is recorded as “+” and the COL10A expression result is given as “+”. In addition, in test [1], the COX-2 expression entry is given as “+” and the RUNX2 expression result is given as “+”. For the same substance, the MMP13 expression result in test [2] is listed as “+”.

As to “14 (SEGESAFPLNSYMNATNHAI; homo sapiens) [compound 14]”, in test [1], the ADAMTS5 expression entry is reported as “−”, the ALP expression result is “−”, the BAPX1/NKX3.2 expression entry is “−” and the COL10A expression result is recorded as “−”. Moreover, in test [1], the COX-2 expression entry is given as “−” and the RUNX2 expression entry is “+”. Also, the MMP13 expression entry in test [2] was “−”.

With “15 (EGESAFPLNSYMNATNHAIV; homo sapiens) [compound 15]”, in test [1], the ADAMTS5 expression result is reported as “−”, the ALP expression result was “−”, the BAPX1/NKX3.2 expression result is “−” and the COL10A expression result was “−”. For the same substance, in test [1], the COX-2 expression entry is recorded as “−” and the RUNX2 expression result was “+”. For the same substance, in test [2], the MMP13 expression entry is “−”.

Take “AAYYSEGESAFPLNSYMNAT (homo sapiens) [SEQ ID NO: 10]”: the “suppression of the OA chondrocyte phenotype” value (shortened to “suppression”) in test [3] was “efficiently suppressed”.

Turning to “APEGYAAYYSEGESAFPLNS (homo sapiens) [SEQ ID NO: 5]”, the “suppression” value in test [3] is “efficiently suppressed”.

Consider “AYYSEGESAFPLNSYMNATN (homo sapiens) [SEQ ID NO: 11]”, for which the “suppression” value in test [3] is given as “efficiently suppressed”.

Consider “EGESAFPLNSYMNATNHAIV (homo sapiens) [SEQ ID NO: 15]”, for which, in test [3], the “suppression” value is on record as “efficiently suppressed”.

For “EGYAAYYSEGESAFPLNSYM (homo sapiens) [SEQ ID NO: 7]”, in test [3], the “suppression” value is on record as “efficiently suppressed”.

Take “IAPEGYAAYYSEGESAFPLN (homo sapiens) [SEQ ID NO: 4]”: the “suppression” value in test [3] is “efficiently suppressed”.

On to “IIAPEGYAAYYSEGESAFPL (homo sapiens) [SEQ ID NO: 3]”, for which, in test [3], the “suppression” value was “efficiently suppressed”.

Turning to “PEGYAAYYSEGESAFPLNSY (homo sapiens) [SEQ ID NO: 6]”, the “suppression” value in test [3] was “efficiently suppressed”.

Regarding “SEGESAFPLNSYMNATNHAI (homo sapiens) [SEQ ID NO: 14]”, the “suppression” value in test [3] was “efficiently suppressed”.

“WIIAPEGYAAYYSEGESAFP (homo sapiens) [SEQ ID NO: 2]”: in test [3], the “suppression” value is reported as “efficiently suppressed”.

“YAAYYSEGESAFPLNSYMNA (homo sapiens) [SEQ ID NO: 9]”: in test [3], the “suppression” value is recorded as “efficiently suppressed”.

Turning to “YSEGESAFPLNSYMNATNHA (homo sapiens) [SEQ ID NO: 13]”, the “suppression” value in test [3] is given as “efficiently suppressed”.

Consider “YYSEGESAFPLNSYMNATNH (homo sapiens) [SEQ ID NO: 12]”, for which, in test [3], the “suppression” value is given as “efficiently suppressed”.
